Here are results for seven compounds from the NIST ThermoML archive (doi:10.1016/j.fluid.2016.05.030).

± gives the expanded uncertainty stated by the source.

For the first data set the following is noted: 348.15 K; 101.33 kPa; Liquid; Concentric cylinders viscometry.
For the compound `CCCc1cccc[n+]1CC.O=S(=O)([N-]S(=O)(=O)C(F)(F)F)C(F)(F)F`, the viscosity was 15.82 ± 0.097 mPa·s.

As to `CCCCc1cccc[n+]1CC.O=S(=O)([N-]S(=O)(=O)C(F)(F)F)C(F)(F)F`, the viscosity amounted to 16.04 ± 0.098 mPa·s.

Regarding `CCCCCCCc1cccc[n+]1CC.O=S(=O)([N-]S(=O)(=O)C(F)(F)F)C(F)(F)F`, the viscosity is 18.28 ± 0.11 mPa·s.

For `CCCCCCCCc1cccc[n+]1CC.O=S(=O)([N-]S(=O)(=O)C(F)(F)F)C(F)(F)F`, the viscosity is 20.39 ± 0.12 mPa·s.

On to `CCCCCc1cccc[n+]1CC.O=S(=O)([N-]S(=O)(=O)C(F)(F)F)C(F)(F)F`, for which the viscosity stood at 16.02 ± 0.098 mPa·s.

Consider `CCCCCCc1cccc[n+]1CC.O=S(=O)([N-]S(=O)(=O)C(F)(F)F)C(F)(F)F`, for which the viscosity is recorded as 16.98 ± 0.1 mPa·s.

Staying with this data set, now noted: 348.15 K; 101.33 kPa; Liquid; Vibrating tube method.
In the case of `CCc1cccc[n+]1CC.O=S(=O)([N-]S(=O)(=O)C(F)(F)F)C(F)(F)F` [1,2-diethylpyridin-1-ium bis((trifluoromethyl)sulfonyl)imide], the mass density is given as 1423.7 ± 1.1 kg/m3.

In the case of `CCCc1cccc[n+]1CC.O=S(=O)([N-]S(=O)(=O)C(F)(F)F)C(F)(F)F`, the mass density is on record as 1400.9 ± 1.1 kg/m3.

As to `CCCCc1cccc[n+]1CC.O=S(=O)([N-]S(=O)(=O)C(F)(F)F)C(F)(F)F`, the mass density is on record as 1364.1 ± 1.1 kg/m3.

As to `CCCCCCCc1cccc[n+]1CC.O=S(=O)([N-]S(=O)(=O)C(F)(F)F)C(F)(F)F`, the mass density stood at 1278.3 ± 1.1 kg/m3.

As for `CCCCCCCCc1cccc[n+]1CC.O=S(=O)([N-]S(=O)(=O)C(F)(F)F)C(F)(F)F`, the mass density amounted to 1255.8 ± 1.1 kg/m3.

In the case of `CCCCCc1cccc[n+]1CC.O=S(=O)([N-]S(=O)(=O)C(F)(F)F)C(F)(F)F`, the mass density was 1327.1 ± 1.1 kg/m3.

In the case of `CCCCCCc1cccc[n+]1CC.O=S(=O)([N-]S(=O)(=O)C(F)(F)F)C(F)(F)F`, the mass density worked out at 1301.4 ± 1.1 kg/m3.

The data set is the same for the next values; noted with them: 353.15 K; 101.33 kPa; Liquid; Concentric cylinders viscometry.
As for `CCc1cccc[n+]1CC.O=S(=O)([N-]S(=O)(=O)C(F)(F)F)C(F)(F)F` [1,2-diethylpyridin-1-ium bis((trifluoromethyl)sulfonyl)imide], the viscosity stood at 11.75 ± 0.072 mPa·s.

On to `CCCc1cccc[n+]1CC.O=S(=O)([N-]S(=O)(=O)C(F)(F)F)C(F)(F)F`, for which the viscosity is given as 13.94 ± 0.085 mPa·s.

On to `CCCCc1cccc[n+]1CC.O=S(=O)([N-]S(=O)(=O)C(F)(F)F)C(F)(F)F`, for which the viscosity is 14.09 ± 0.086 mPa·s.

`CCCCCCCc1cccc[n+]1CC.O=S(=O)([N-]S(=O)(=O)C(F)(F)F)C(F)(F)F`: the viscosity is on record as 15.97 ± 0.098 mPa·s.

For the compound `CCCCCCCCc1cccc[n+]1CC.O=S(=O)([N-]S(=O)(=O)C(F)(F)F)C(F)(F)F`, the viscosity turned out to be 17.72 ± 0.11 mPa·s.

On to `CCCCCc1cccc[n+]1CC.O=S(=O)([N-]S(=O)(=O)C(F)(F)F)C(F)(F)F`, for which the viscosity is reported as 14.06 ± 0.086 mPa·s.

Turning to `CCCCCCc1cccc[n+]1CC.O=S(=O)([N-]S(=O)(=O)C(F)(F)F)C(F)(F)F`, the viscosity is recorded as 14.86 ± 0.091 mPa·s.

The same data set, now with this note: 353.15 K; 101.33 kPa; Liquid; Vibrating tube method.
With `CCc1cccc[n+]1CC.O=S(=O)([N-]S(=O)(=O)C(F)(F)F)C(F)(F)F` [1,2-diethylpyridin-1-ium bis((trifluoromethyl)sulfonyl)imide], the mass density is listed as 1419.1 ± 1.1 kg/m3.

As for `CCCc1cccc[n+]1CC.O=S(=O)([N-]S(=O)(=O)C(F)(F)F)C(F)(F)F`, the mass density came to 1396.4 ± 1.1 kg/m3.

Turning to `CCCCc1cccc[n+]1CC.O=S(=O)([N-]S(=O)(=O)C(F)(F)F)C(F)(F)F`, the mass density amounted to 1359.7 ± 1.1 kg/m3.

For the compound `CCCCCCCc1cccc[n+]1CC.O=S(=O)([N-]S(=O)(=O)C(F)(F)F)C(F)(F)F`, the mass density is given as 1274.2 ± 1.1 kg/m3.

As for `CCCCCCCCc1cccc[n+]1CC.O=S(=O)([N-]S(=O)(=O)C(F)(F)F)C(F)(F)F`, the mass density came to 1251.7 ± 1.1 kg/m3.

For `CCCCCc1cccc[n+]1CC.O=S(=O)([N-]S(=O)(=O)C(F)(F)F)C(F)(F)F`, the mass density was 1322.8 ± 1.1 kg/m3.

Consider `CCCCCCc1cccc[n+]1CC.O=S(=O)([N-]S(=O)(=O)C(F)(F)F)C(F)(F)F`, for which the mass density amounted to 1297.1 ± 1.1 kg/m3.

Staying with this data set, now noted: 358.15 K; 101.33 kPa; Liquid; Concentric cylinders viscometry.
`CCc1cccc[n+]1CC.O=S(=O)([N-]S(=O)(=O)C(F)(F)F)C(F)(F)F` [1,2-diethylpyridin-1-ium bis((trifluoromethyl)sulfonyl)imide]: the viscosity was determined as 10.52 ± 0.065 mPa·s.

Turning to `CCCc1cccc[n+]1CC.O=S(=O)([N-]S(=O)(=O)C(F)(F)F)C(F)(F)F`, the viscosity worked out at 12.3 ± 0.075 mPa·s.

On to `CCCCc1cccc[n+]1CC.O=S(=O)([N-]S(=O)(=O)C(F)(F)F)C(F)(F)F`, for which the viscosity was determined as 12.39 ± 0.076 mPa·s.

Regarding `CCCCCCCc1cccc[n+]1CC.O=S(=O)([N-]S(=O)(=O)C(F)(F)F)C(F)(F)F`, the viscosity was 13.97 ± 0.086 mPa·s.

For `CCCCCCCCc1cccc[n+]1CC.O=S(=O)([N-]S(=O)(=O)C(F)(F)F)C(F)(F)F`, the viscosity stood at 15.44 ± 0.094 mPa·s.

Consider `CCCCCc1cccc[n+]1CC.O=S(=O)([N-]S(=O)(=O)C(F)(F)F)C(F)(F)F`, for which the viscosity came out at 12.36 ± 0.076 mPa·s.

On to `CCCCCCc1cccc[n+]1CC.O=S(=O)([N-]S(=O)(=O)C(F)(F)F)C(F)(F)F`, for which the viscosity stood at 13.04 ± 0.08 mPa·s.

Still in this data set, the particulars now being: 358.15 K; 101.33 kPa; Liquid; Vibrating tube method.
Regarding `CCc1cccc[n+]1CC.O=S(=O)([N-]S(=O)(=O)C(F)(F)F)C(F)(F)F` [1,2-diethylpyridin-1-ium bis((trifluoromethyl)sulfonyl)imide], the mass density is 1414.6 ± 1.1 kg/m3.

In the case of `CCCc1cccc[n+]1CC.O=S(=O)([N-]S(=O)(=O)C(F)(F)F)C(F)(F)F`, the mass density was 1391.9 ± 1.1 kg/m3.

Turning to `CCCCc1cccc[n+]1CC.O=S(=O)([N-]S(=O)(=O)C(F)(F)F)C(F)(F)F`, the mass density turned out to be 1355.4 ± 1.1 kg/m3.

Consider `CCCCCCCc1cccc[n+]1CC.O=S(=O)([N-]S(=O)(=O)C(F)(F)F)C(F)(F)F`, for which the mass density was 1270.1 ± 1.1 kg/m3.

For the compound `CCCCCCCCc1cccc[n+]1CC.O=S(=O)([N-]S(=O)(=O)C(F)(F)F)C(F)(F)F`, the mass density stood at 1247.6 ± 1.1 kg/m3.

Take `CCCCCc1cccc[n+]1CC.O=S(=O)([N-]S(=O)(=O)C(F)(F)F)C(F)(F)F`: the mass density was determined as 1318.6 ± 1.1 kg/m3.

Consider `CCCCCCc1cccc[n+]1CC.O=S(=O)([N-]S(=O)(=O)C(F)(F)F)C(F)(F)F`, for which the mass density is 1292.9 ± 1.1 kg/m3.

The data set is the same for the next values; noted with them: 363.15 K; 101.33 kPa; Liquid; Concentric cylinders viscometry.
`CCc1cccc[n+]1CC.O=S(=O)([N-]S(=O)(=O)C(F)(F)F)C(F)(F)F` [1,2-diethylpyridin-1-ium bis((trifluoromethyl)sulfonyl)imide]: the viscosity was 9.483 ± 0.058 mPa·s.

On to `CCCc1cccc[n+]1CC.O=S(=O)([N-]S(=O)(=O)C(F)(F)F)C(F)(F)F`, for which the viscosity was found to be 10.95 ± 0.067 mPa·s.

For `CCCCc1cccc[n+]1CC.O=S(=O)([N-]S(=O)(=O)C(F)(F)F)C(F)(F)F`, the viscosity is 11 ± 0.068 mPa·s.

For the compound `CCCCCCCc1cccc[n+]1CC.O=S(=O)([N-]S(=O)(=O)C(F)(F)F)C(F)(F)F`, the viscosity is reported as 12.34 ± 0.076 mPa·s.

For `CCCCCCCCc1cccc[n+]1CC.O=S(=O)([N-]S(=O)(=O)C(F)(F)F)C(F)(F)F`, the viscosity stood at 13.58 ± 0.083 mPa·s.

Turning to `CCCCCc1cccc[n+]1CC.O=S(=O)([N-]S(=O)(=O)C(F)(F)F)C(F)(F)F`, the viscosity came out at 10.97 ± 0.068 mPa·s.

For the compound `CCCCCCc1cccc[n+]1CC.O=S(=O)([N-]S(=O)(=O)C(F)(F)F)C(F)(F)F`, the viscosity stood at 11.54 ± 0.071 mPa·s.

The same data set, now with this note: 363.15 K; 101.33 kPa; Liquid; Vibrating tube method.
For `CCc1cccc[n+]1CC.O=S(=O)([N-]S(=O)(=O)C(F)(F)F)C(F)(F)F` [1,2-diethylpyridin-1-ium bis((trifluoromethyl)sulfonyl)imide], the mass density was 1410 ± 1.1 kg/m3.

In the case of `CCCc1cccc[n+]1CC.O=S(=O)([N-]S(=O)(=O)C(F)(F)F)C(F)(F)F`, the mass density was determined as 1387.5 ± 1.1 kg/m3.

Turning to `CCCCc1cccc[n+]1CC.O=S(=O)([N-]S(=O)(=O)C(F)(F)F)C(F)(F)F`, the mass density is recorded as 1351 ± 1.1 kg/m3.

In the case of `CCCCCCCc1cccc[n+]1CC.O=S(=O)([N-]S(=O)(=O)C(F)(F)F)C(F)(F)F`, the mass density worked out at 1266 ± 1.1 kg/m3.

With `CCCCCCCCc1cccc[n+]1CC.O=S(=O)([N-]S(=O)(=O)C(F)(F)F)C(F)(F)F`, the mass density came to 1243.6 ± 1.1 kg/m3.

Consider `CCCCCc1cccc[n+]1CC.O=S(=O)([N-]S(=O)(=O)C(F)(F)F)C(F)(F)F`, for which the mass density was determined as 1314.3 ± 1.1 kg/m3.

`CCCCCCc1cccc[n+]1CC.O=S(=O)([N-]S(=O)(=O)C(F)(F)F)C(F)(F)F`: the mass density was found to be 1288.8 ± 1.1 kg/m3.
